# Legend:
# DRB1*0701 = DRB1*0701 (Homo sapiens, UniProt P01903+P01911, A100R/A102G/A103Q/D57E/D86V/E43K/F76Y/K127E/L162R/M171V/P40G/Q125H/Q99D/R33Q/R42Y/R54Q/S133A/S66F/T210M/V115G/Y107V/Y59L/Y89S); assay: HLA class II peptide-binding assay (competitive ELISA); settings: immunopurified HLA, reference peptide IC50 5 nM, ratio ≤20 high affinity, 20–200 moderate affinity
# DRB1*0101 = DRB1*0101 (Homo sapiens, UniProt P01903+P01911, A100R/D57E/F55L/F60I/F76Y/I96L/L162R/M171V/P40L/Q125E/R42F/V115G/Y59C); assay: as above; settings: immunopurified HLA, reference peptide IC50 3 nM, ratio ≤20 high affinity, 20–200 moderate affinity
# DRB3 = assay: as above; parameters: species or system human; settings: DRB3; competitive ELISA, immunopurified HLA; reference peptide IC50 60 nM; ratio ≤20 high affinity, 20–200 moderate affinity
# DRB5 = assay: as above; parameters: species or system human; settings: DRB5; competitive ELISA, immunopurified HLA; reference peptide IC50 7 nM; ratio ≤20 high affinity, 20–200 moderate affinity
# DRB1*0301 = DRB1*0301 (Homo sapiens, UniProt P01903+P01911, A100K/A102G/A103R/A169T/F55Y/I96L/K41T/L162R/M171V/P40S/Q125H/Q178H/Q39Y/R42S/S66N/T106N/T262R/W38E/Y61H); assay: as above; settings: immunopurified HLA, reference peptide IC50 423 nM, ratio ≤20 high affinity, 20–200 moderate affinity
# DRB1*1101 = DRB1*1101 (Homo sapiens, UniProt P01903+P01911, A100R/A169T/A87E/I96F/K41T/L162R/M171V/P40S/Q125H/Q178H/Q39Y/Q99D/R42S/S66Y/T262R/V115G/W38E); assay: as above; settings: immunopurified HLA, reference peptide IC50 50 nM, ratio ≤20 high affinity, 20–200 moderate affinity
# DRB1*1301 = DRB1*1301 (Homo sapiens, UniProt P01903+P01911, A100E/A169T/K41T/L162R/M171V/P40S/Q125H/Q178H/Q39Y/Q99D/R42S/S66N/T262R/W38E/Y61H); assay: as above; settings: immunopurified HLA, reference peptide IC50 208 nM, ratio ≤20 high affinity, 20–200 moderate affinity
# DRB4 = assay: as above; parameters: species or system human; settings: DRB4; competitive ELISA, immunopurified HLA; reference peptide IC50 8 nM; ratio ≤20 high affinity, 20–200 moderate affinity
# DRB1*1501 = DRB1*1501 (Homo sapiens, UniProt P01903+P01911); assay: as above; settings: immunopurified HLA, reference peptide IC50 775 nM, ratio ≤20 high affinity, 20–200 moderate affinity
# DRB1*0401 = DRB1*0401 (Homo sapiens, UniProt P01903+P01911, A100K/A169T/F76Y/I96L/K127E/L162R/M171V/N62H/P40V/Q125Y/R42H/S133A/S149N/S66Y/V115G/V209L/W38E); assay: as above; settings: immunopurified HLA, reference peptide IC50 8 nM, ratio ≤20 high affinity, 20–200 moderate affinity
# [1] = test system: CD25-depleted PBMCs (CD4+ T cells); assay: Generation of peptide-specific CD4+ T cell lines with the split-well method (frequency of specific TCLs); assay type: cell-based, human; settings: peptides at 2 µM, 10^5 PBMCs per well, mean±SEM, SEM
# Description: After isolating peripheral-blood mononuclear cells (PBMCs) by Ficoll-Paque Plus density gradient centrifugation (GE Healthcare Biosciences, Uppsala, Sweden), CD4^+CD25high regulatory T cells were depleted with anti-CD25-magnetic beads (Miltenyi Biotec, Bergisch Gladbach, Germany), to enhance the induction of both autoreactive and allergen-reactive CD4^+ T cell responses, as previously described, [34].The CD25-depleted PBMCs were seeded in 96-well U-bottomed plates (Corning Incorporated, Corning, USA; 10^5 PBMCs per well) in the presence of pooled Can f 1 or TL peptides (each peptide at 2 µM, 30 wells per a peptide pool), or the HA peptide (30 wells) in a 150 µl volume of RPMI 1640 culture medium supplemented with 2 mM L-glutamine, 20 µM 2-mercaptoethanol, 1 mM sodium pyruvate, nonessential amino acids, 100 IU/ml penicillin, 100 µg/ml streptomycin, 10 mM HEPES (all from Lonza, Verviers, Belgium) and 5% inactivated human AB serum (Sigma-Aldrich, St. Louis, MO). On day 5, 50 µl of fresh medium supplemented with 10 IU/ml of IL-2 (Strathmann Biotech, Hannover, Germany) was added to the cultures. On day 7, half of the culture medium was replaced without IL-2. On day 10, half of the cells in the cultures were split into daughter plates for testing specificity by stimulating the cells with or without the pooled peptides (each peptide at 2 µM) together with autologous γ-irradiated (3000 rad) PBMCs (5×10^5) as antigen-presenting cells. After an incubation of 72 h, [3H]thymidine was added (1 µCi per well; GE Healthcare, Little Chalfont, UK), and after an additional 16 h, the cells were harvested onto glass fiber filters on day 14 (Wallac, Turku, Finland). Radioactivity was measured by scintillation counting (Wallac Micro Beta 1540) and the results were expressed as counts per minute (CPM). The stimulation indices (SI; CPM in the presence of antigen divided by CPM in the absence of antigen) and CPM differences between stimulated and unstimulated wells (ΔCPM) were determined. On the same day, positive cultures (ΔCPM>2000 and SI>2) were restimulated in 48-well plates with autologous γ-irradiated PBMCs (10^6/well), 2 µM of the peptides and 25 IU/ml of IL-2. On day 28, the established TCLs were propagated once more with peptides, IL-2 and PBMCs. After stimulations, half of the culture medium was replaced with fresh medium supplemented with IL-2 every 2–3 days. The peptide specificity of TCLs was defined as described below.
# T cell proliferation assays were set in duplicates in 96-well U-bottomed plates with 2.5×10^4 cultured T cells, 5×10^4 autologous γ-irradiated (3000 rad) PBMCs as APCs, and antigens as indicated. In order to determine the epitope specificity of the established TCLs induced with peptide pools, the T cell lines were tested with each of the three individual peptides in the pool at 10 µM on day 28. Proliferation was measured by radionuclide uptake (see above). […] On day 42, peptide-specific TCLs were tested with individual Can f 1 peptides, as well as their TL homologues, at several concentrations up to 10 µM. The functional T cell receptor (TCR) avidities of the TCLs for a peptide were assessed by determining effective concentration 50 (EC50) values (i.e., the concentration of a peptide needed to induce a half-maximal proliferative response) from the dose-response curves of individual TCLs.
Sequence,relative binding ratio (IC50 of the test peptide divided by IC50 of the reference peptide) (DRB1*0701),relative binding ratio (IC50 of the test peptide divided by IC50 of the reference peptide) (DRB1*0101),relative binding ratio (IC50 of the test peptide divided by IC50 of the reference peptide) (DRB3),relative binding ratio (IC50 of the test peptide divided by IC50 of the reference peptide) (DRB5),relative binding ratio (IC50 of the test peptide divided by IC50 of the reference peptide) (DRB1*0301),relative binding ratio (IC50 of the test peptide divided by IC50 of the reference peptide) (DRB1*1101),relative binding ratio (IC50 of the test peptide divided by IC50 of the reference peptide) (DRB1*1301),relative binding ratio (IC50 of the test peptide divided by IC50 of the reference peptide) (DRB4),relative binding ratio (IC50 of the test peptide divided by IC50 of the reference peptide) (DRB1*1501),relative binding ratio (IC50 of the test peptide divided by IC50 of the reference peptide) (DRB1*0401),positive specific TCLs out of 30 replicate wells per subject ([1]; allergic subjects) [%],positive specific TCLs out of 30 replicate wells per subject ([1]; nonallergic subjects) [%]
"MNLESVTPMTLTTLEGGNL [pTL2, Tear lipocalin peptide p31–49]",55,15,> 167,645,> 236,> 200,> 481,> 1 179,> 13,436,,
"PGKYTADGGKHVAYII [pTL4, Tear lipocalin peptide p74–89]",65,17,2,433,> 236,0.2,> 481,> 1 179,> 13,31,,
"PGKYTAYEGQRVVFIQ [pC4, Can f 1 peptide p73–88]",1,1,61,14,13,133,56,722,0.4,82,5.0±1.15,4.2±1.61
"RQIRMAKLLGRDPEQSQ [pC7, Can f 1 peptide p107–123]",> 1 874,66,> 167,1,4,92,2,94,> 13,661,,

# The next lines start with results.
relative binding ratio (IC50 of the test peptide divided by IC50 of the reference peptide) (DRB1*0701),relative binding ratio (IC50 of the test peptide divided by IC50 of the reference peptide) (DRB1*0101),relative binding ratio (IC50 of the test peptide divided by IC50 of the reference peptide) (DRB3),relative binding ratio (IC50 of the test peptide divided by IC50 of the reference peptide) (DRB5),relative binding ratio (IC50 of the test peptide divided by IC50 of the reference peptide) (DRB1*0301),relative binding ratio (IC50 of the test peptide divided by IC50 of the reference peptide) (DRB1*1101),relative binding ratio (IC50 of the test peptide divided by IC50 of the reference peptide) (DRB1*1301),relative binding ratio (IC50 of the test peptide divided by IC50 of the reference peptide) (DRB4),relative binding ratio (IC50 of the test peptide divided by IC50 of the reference peptide) (DRB1*1501),relative binding ratio (IC50 of the test peptide divided by IC50 of the reference peptide) (DRB1*0401),Sequence,positive specific TCLs out of 30 replicate wells per subject ([1]; allergic subjects) [%],positive specific TCLs out of 30 replicate wells per subject ([1]; nonallergic subjects) [%]
> 1 874,> 3844,> 167,> 1 443,8,105,236,> 1 179,> 13,> 1 260,"KPVRGVKLVGRDPKNNL [pTL7, Tear lipocalin peptide p108–124]",,
103,4,> 167,339,33,89,471,> 1 179,2,50,"LEAKITMLTNGQCQNIT [pC3, Can f 1 peptide p48–64]",,
0.2,2,8,4,0.4,5,3,312,1,82,"LEAKVTMLISGRCQEVK [pTL3, Tear lipocalin peptide p49–65]",1.89±0.57,4.2±0.68
